Results taken from patent US6545029B2, “Phenylserine derivatives as integrin antagonists” (Bayer Aktiengesellschaft, priority 2000, dated 2003).

Target: T1, αvβ3 from human placenta (Homo sapiens, UniProt P05106+P06756)
T1 construct: αvβ3 from human placenta; from tissue; host or cells: human placenta
Assay: αvβ3/echistatin binding inhibition (I125-echistatin, scintillation proximity beads)
Conditions: inhibition of I125-echistatin binding to αvβ3; 1 hour at room temperature; determined in duplicate from concentration series
Procedure: The substances were tested for their ability to inhibit αvβ3/echistatin binding analogously to Kumar C. C., Nie H. M., Rogers G. P., Malkowski M., Maxwell E., Catino J. J. and Armstrong L. (Journal of Pharmacology and Experimental Therapeutics 283(2)(1997)843-853).
αvβ3 from human placenta (Smith J. W. and Cheresh, D. A. (1988), J. Biol. Chem. 263, 18726-18732) (1 mg/ml 50 mM tris HCl pH 7.4, 100 mM NaCl, 2 mM CaCl2, 1% and octylglucoside) was diluted with test buffer (50 mM tris-HCl pH 7.4, 100 mM NaCl, 1 mM CaCl2, 1 mM MgCl2, 1 mM MnCl2, 0.1% bovine serum albumin) and 55 μl each of this αvβ3 solution were added to the wells of a 96-well microtiter plate (about 0.1-0.3 μg of αvβ3 per well). 2 μl of the substances to be tested dissolved in DMSO were then added. 10 μl (40,000 cpm) of I^125-echistatin per well were then added and the mixture was incubated for 1 hour at room temperature with careful shaking. It was then treated with 100 μg of wheatgerm-coated yttrium silicate beads (Amersham, type RPNQ0011) in 25 μl of distilled water. After 1 hour at room temperature, the cpm values were measured in a scintillation counter. The Ki values were determined in duplicate from concentration series. The nonspecific binding was determined in the presence of 0.1 μM unlabeled echistatin or by addition of 5 mM EDTA to the binding mixture.

T1 sequence (P06756 31-889 limits assumed): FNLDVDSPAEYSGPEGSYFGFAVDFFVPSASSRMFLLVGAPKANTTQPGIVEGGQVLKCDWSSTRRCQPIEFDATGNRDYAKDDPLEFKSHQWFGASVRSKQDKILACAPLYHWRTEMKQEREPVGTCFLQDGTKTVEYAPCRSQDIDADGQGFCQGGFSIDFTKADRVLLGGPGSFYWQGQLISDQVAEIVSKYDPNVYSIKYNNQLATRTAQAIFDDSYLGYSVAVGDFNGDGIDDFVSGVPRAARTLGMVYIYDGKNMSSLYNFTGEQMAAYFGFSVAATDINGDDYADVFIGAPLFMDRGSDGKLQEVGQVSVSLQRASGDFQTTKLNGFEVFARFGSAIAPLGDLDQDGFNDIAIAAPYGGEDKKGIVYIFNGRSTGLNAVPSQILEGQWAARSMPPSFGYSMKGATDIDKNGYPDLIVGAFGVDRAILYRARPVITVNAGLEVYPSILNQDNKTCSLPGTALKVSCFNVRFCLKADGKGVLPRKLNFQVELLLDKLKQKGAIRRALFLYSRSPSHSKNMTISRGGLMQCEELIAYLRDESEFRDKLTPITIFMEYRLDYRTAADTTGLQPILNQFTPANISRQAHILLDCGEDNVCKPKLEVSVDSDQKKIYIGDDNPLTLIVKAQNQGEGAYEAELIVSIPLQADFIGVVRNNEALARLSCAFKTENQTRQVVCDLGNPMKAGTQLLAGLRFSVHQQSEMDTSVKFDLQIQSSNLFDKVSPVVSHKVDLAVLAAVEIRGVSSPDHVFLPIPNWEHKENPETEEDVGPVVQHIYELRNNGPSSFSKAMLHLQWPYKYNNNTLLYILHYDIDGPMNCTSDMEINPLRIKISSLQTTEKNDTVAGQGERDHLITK
T1 sequence (P06756 891-1048 partner limits assumed): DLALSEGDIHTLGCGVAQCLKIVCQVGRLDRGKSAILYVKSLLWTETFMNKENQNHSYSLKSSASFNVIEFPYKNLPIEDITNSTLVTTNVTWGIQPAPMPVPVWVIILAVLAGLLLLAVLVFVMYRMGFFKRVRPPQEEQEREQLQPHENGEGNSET
T1 sequence (P05106 27-788): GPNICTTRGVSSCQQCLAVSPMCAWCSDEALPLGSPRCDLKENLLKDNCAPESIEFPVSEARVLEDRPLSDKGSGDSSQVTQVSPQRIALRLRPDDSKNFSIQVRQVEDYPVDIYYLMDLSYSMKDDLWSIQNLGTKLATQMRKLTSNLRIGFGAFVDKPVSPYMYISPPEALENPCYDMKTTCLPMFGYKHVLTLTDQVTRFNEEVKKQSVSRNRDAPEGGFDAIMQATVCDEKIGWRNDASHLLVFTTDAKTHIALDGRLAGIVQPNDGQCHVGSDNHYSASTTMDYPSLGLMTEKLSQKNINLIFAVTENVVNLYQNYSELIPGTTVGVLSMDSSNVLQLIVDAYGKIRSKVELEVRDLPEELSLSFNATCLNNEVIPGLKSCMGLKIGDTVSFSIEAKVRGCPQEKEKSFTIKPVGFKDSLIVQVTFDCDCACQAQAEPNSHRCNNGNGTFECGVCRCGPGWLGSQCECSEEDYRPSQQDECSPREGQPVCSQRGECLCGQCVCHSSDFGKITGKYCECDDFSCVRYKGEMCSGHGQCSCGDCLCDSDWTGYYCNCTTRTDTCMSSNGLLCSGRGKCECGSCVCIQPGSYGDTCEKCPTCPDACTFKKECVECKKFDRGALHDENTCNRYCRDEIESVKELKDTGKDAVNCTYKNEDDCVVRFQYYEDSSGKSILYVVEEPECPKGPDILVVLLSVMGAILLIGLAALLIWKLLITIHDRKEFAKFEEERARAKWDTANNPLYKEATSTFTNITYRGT

- Ki: 4 nM
SMILES: CCCNC(=O)Nc1cccc(-c2ccc(OC[C@H](NS(=O)(=O)c3c(C)cc(C)cc3C)C(=O)O)cc2)c1 [Example 20, N-(Mesitylsulfonyl)-O-(3′-{[(propylamino)carbonyl]amino}-1,1′-biphenyl-4-yl)-L-serine]
